Patent US7135466B2 (Kirin Beer Kabushiki Kaisha, priority 1999, dated 2006)
Read-outs that look alike come from different tables or passages of the source.

Assays:
Format in all cases: cell-based
c-kit = biological target: T1, c-kit (Homo sapiens, UniProt P10721); experiment: Inhibitory activity against c-kit autophosphorylation (MO7e cells, h-SCF); settings: for inhibition at 1 µM: Mo7e, figure in parentheses in −( ); for IC50: MO7e cells, read-out: c-kit IC50
T1 construct: MO7e (human megakaryocytic leukemia cell line) which had been arrested for 20 hr; endogenous in cells; host or cells: MO7e human megakaryocytic leukemia cell line
T1 sequence (P10721 26-976): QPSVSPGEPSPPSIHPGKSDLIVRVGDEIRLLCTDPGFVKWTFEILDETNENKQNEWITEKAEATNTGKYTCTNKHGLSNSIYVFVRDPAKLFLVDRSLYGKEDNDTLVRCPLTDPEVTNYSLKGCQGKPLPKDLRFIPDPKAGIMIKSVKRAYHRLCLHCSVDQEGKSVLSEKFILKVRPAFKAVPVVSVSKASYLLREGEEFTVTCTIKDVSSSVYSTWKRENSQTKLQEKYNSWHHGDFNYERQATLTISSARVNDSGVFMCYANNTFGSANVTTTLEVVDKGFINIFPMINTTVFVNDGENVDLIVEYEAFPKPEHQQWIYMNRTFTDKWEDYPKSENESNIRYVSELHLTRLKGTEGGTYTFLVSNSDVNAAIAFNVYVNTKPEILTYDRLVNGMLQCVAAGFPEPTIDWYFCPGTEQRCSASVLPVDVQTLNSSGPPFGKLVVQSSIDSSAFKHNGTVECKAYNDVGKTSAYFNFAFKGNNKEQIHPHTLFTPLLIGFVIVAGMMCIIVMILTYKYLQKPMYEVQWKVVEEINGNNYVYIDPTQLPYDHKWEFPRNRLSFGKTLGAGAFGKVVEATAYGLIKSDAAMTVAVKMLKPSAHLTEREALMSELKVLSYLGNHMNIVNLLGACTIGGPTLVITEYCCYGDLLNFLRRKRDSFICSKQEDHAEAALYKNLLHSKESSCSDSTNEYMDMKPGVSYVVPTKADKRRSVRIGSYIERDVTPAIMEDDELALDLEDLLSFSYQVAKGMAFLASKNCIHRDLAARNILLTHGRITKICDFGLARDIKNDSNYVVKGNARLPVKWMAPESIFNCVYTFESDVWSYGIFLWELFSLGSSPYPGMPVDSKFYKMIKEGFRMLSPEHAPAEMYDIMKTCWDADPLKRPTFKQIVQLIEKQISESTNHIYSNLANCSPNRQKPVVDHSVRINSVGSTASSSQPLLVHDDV
Outline: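 MO7e cells, arrested for 20 hr, were pretreated with test compound in DMSO for 1 hr and then stimulated with 50 ng/ml h-SCF for 5 min before lysis. Lysates were captured on immobilized anti-phosphotyrosine PY-20, probed with anti-c-kit antibody and HRP anti-rabbit IgG, and read colorimetrically at 450 nm.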

PDGF-R = PDGF-R (Rattus norvegicus, UniProt Q05030); experiment: PDGF-R autophosphorylation inhibition screening (dot plotting), vascular smooth muscle cells, PDGF-BB; settings: figure in parentheses in −( ); at 1000 nM; read-out: PDGF (D) inhibition (%) at 1000 nM
Chain of PDGF-R (Q05030 32-1097): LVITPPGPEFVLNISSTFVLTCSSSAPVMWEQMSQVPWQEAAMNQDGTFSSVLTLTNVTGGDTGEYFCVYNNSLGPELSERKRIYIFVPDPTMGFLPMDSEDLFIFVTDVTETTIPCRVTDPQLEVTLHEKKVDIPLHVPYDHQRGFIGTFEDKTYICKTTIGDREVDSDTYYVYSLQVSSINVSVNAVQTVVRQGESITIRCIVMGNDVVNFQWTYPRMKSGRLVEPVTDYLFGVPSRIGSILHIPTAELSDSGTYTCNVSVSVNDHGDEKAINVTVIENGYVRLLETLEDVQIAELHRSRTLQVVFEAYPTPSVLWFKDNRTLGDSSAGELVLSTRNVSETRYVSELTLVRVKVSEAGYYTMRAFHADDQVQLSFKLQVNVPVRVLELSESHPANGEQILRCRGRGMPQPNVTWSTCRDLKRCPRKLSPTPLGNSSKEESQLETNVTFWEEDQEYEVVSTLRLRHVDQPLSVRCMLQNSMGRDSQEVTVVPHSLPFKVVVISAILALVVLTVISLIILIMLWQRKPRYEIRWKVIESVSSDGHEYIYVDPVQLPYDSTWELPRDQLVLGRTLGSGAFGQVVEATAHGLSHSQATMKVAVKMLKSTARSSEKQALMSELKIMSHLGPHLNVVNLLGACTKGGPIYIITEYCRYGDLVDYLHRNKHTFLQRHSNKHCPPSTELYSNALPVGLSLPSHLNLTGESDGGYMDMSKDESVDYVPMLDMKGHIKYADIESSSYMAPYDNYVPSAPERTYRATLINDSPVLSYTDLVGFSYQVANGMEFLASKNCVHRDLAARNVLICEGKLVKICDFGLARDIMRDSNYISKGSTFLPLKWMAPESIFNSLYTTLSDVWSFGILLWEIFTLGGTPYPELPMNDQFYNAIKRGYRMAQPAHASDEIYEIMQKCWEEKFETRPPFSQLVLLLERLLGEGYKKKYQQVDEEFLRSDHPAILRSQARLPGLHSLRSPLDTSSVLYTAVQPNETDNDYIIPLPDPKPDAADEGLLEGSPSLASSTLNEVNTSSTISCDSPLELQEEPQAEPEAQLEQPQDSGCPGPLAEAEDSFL
Protocol: PDGF-R Autophosphorylation Inhibition Screening (Dot Plotting)
Vascular smooth muscle cells (passage 5 to 10) collected from rat thoracic aorta by the explant method were planted at 8×10^3 cells per well in 96-well plates, subject to a serum starvation state, and 24 hr after the plantation then assayed.
A test compund was added, and the mixture was incubated at 37° C. for one hr. Thereafter, PDGF-BB was added to 50 ng/ml, and the mixture was incubated for 5 min, followed by washing with cold PBS. Lysate buffer (20 μl/well) was then added, SDS buffer ([…]) was added thereto, and 2 μl of the mixture was then spotted on a PDVF membrane.
Treatment was carried out with anti-mouse IgG which had been labelled with peroxidase after treatment with an anti-phosphotyrosine antibody, followed by development in an ECL color development kit (Amersham). Thereafter, the color intensity was quantitatively determined by image analysis.

PDGF-Ra = biological target: T2, PDGF-Ra (Homo sapiens, UniProt P16234); experiment: Inhibitory activity against PDGF-Ra phosphorylation by PDGF-AA stimulation using G292; settings: > means inhibition at indicated concentration not more than 50%, < and << not less than 50%; read-out: PDGF (E) IC50
T2 construct: host or cells: G-292 human osteosarcoma cells
T2 sequence (P16234 24-1089): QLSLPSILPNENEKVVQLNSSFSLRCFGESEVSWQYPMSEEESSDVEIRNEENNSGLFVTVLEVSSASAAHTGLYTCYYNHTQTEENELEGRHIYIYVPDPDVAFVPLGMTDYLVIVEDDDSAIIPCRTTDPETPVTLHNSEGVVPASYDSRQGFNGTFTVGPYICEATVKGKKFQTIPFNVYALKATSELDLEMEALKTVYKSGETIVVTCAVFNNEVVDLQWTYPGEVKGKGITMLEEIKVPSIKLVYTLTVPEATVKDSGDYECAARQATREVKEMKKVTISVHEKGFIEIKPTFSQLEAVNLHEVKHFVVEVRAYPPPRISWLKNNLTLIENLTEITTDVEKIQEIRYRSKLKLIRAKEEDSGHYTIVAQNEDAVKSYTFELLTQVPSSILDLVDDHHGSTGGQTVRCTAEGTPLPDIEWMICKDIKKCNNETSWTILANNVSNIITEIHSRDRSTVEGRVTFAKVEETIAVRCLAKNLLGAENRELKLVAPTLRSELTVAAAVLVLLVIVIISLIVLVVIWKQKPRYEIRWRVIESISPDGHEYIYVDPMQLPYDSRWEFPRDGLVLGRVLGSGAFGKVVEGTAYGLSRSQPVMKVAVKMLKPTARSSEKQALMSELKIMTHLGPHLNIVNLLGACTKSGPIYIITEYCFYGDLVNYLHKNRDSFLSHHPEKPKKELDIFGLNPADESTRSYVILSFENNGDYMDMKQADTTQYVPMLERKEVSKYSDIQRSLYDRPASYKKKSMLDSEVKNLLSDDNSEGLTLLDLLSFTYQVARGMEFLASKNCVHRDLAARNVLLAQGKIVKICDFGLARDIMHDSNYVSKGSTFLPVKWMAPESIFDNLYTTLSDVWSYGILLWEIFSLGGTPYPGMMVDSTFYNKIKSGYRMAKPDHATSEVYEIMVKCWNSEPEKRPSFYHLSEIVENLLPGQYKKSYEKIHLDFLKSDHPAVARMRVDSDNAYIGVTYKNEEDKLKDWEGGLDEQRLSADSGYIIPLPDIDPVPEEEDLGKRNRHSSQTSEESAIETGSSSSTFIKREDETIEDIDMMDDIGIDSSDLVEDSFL
Outline: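 In G-292 osteosarcoma cells kept overnight in 0.1% FBS, compound exposure (1 hr, 37 °C) preceded PDGF-AA stimulation at 50 ng/ml for 5 min; receptor phosphotyrosine was then detected by PY-20 capture ELISA.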

| Compound | inhibition at 1 µM (c-kit; at 1000 nM) [%] | inhibition at 1 µM (PDGF-R) [%] | IC50 (c-kit; h-SCF stimulation) [nM] | IC50 (PDGF-Ra) [nM] | further results |
| --- | --- | --- | --- | --- | --- |
| COc1cc2nccc(Oc3ccc(S(=O)(=O)CCOc4ccc(F)cc4)cc3)c2cc1OC [Example 829, 4-[(6,7-Dimethoxy-4-quinolyl)oxy]phenyl [2-(4-fluorophenoxy)ethyl]sulfone] | 10 | 30 | – | – | – |
| COc1cccc(OCCS(=O)(=O)c2ccc(Oc3ccnc4cc(OC)c(OC)cc34)cc2)c1 [Example 830, 4-[(6,7-Dimethoxy-4-quinolyl)oxy]phenyl [2-(3-methoxyphenoxy)ethyl]sulfone] | 10 | 23 | – | – | – |
| COc1cc2nccc(Oc3ccc(S(=O)(=O)CCOc4ccc(Cl)cc4Cl)cc3)c2cc1OC [Example 831, 2-(2,4-Dichlorophenoxy)ethyl{4-[(6,7-dimethoxy-4-quinolyl)oxy]phenyl}sulfone] | 19 | 50 | – | – | – |
| COc1cc2nccc(Oc3ccc(S(=O)(=O)CCOc4cccc(Cl)c4)cc3)c2cc1OC [Example 832, 2-(3-Chlorophenoxy)ethyl{4-[(6.7-dimethoxy-4-quinolyl)oxy]phenyl}sulfone] | 21 | 35 | – | – | – |
| COc1cc2nccc(Oc3ccc([S+]([O-])CCOc4ccc(F)cc4[N+](=O)[O-])cc3)c2cc1OC (centres unmarked) [Example 839, {4-[(6,7-Dimethoxy-4-quinolyl)oxy]phenyl}[2-(4-fluoro-2-nitrophenoxy)ethyl] sulfoxide] | 30 | 24 | – | – | – |
| CCCCCCCCCCCC(=O)NC(=S)Nc1ccc(Oc2ccnc3cc(OC)c(OC)cc23)cc1 [Example 1072, N-{4-[(6,7-Dimethoxy-4-quinolyl)oxy]phenyl}-N′-dodecanoylthiourea] | 18 | 34 | – | – | – |
| CCCCCCCCCCCCCC(=O)NC(=S)Nc1ccc(Oc2ccnc3cc(OC)c(OC)cc23)cc1 [Example 1073, N-{4-[(6,7-Dimethoxy-4-quinolyl)oxy]phenyl}-N′-tetradecanoylthiourea] | 20 | 23 | – | – | – |
| CCCCCCCCCCCC(=O)NC(=S)Nc1ccc(Oc2ccnc3cc(OC)c(OC)cc23)cc1F [Example 1075, N-{4-[(6,7-Dimethoxy-4-quinolyl)oxy]-2-fluorophenyl}-N′-dodecanoylthiourea] | 31 | 17 | – | – | – |
| COc1cc2ncnc(Oc3ccc(NC(=S)NC(=O)C4CCCC4)cc3)c2cc1OC [Example 1183, N-Cyclopentylcarbonyl-N′-{4-[(6,7-dimethoxy-4-quinazolinyl)oxy]phenyl}thiourea] | – | – | 427 | < 10 | – |
| COc1cc2ncnc(Oc3ccc(NC(=S)NC(=O)CCc4cccc(C)c4)cc3)c2cc1OC [Example 1185, N-{4-[(6,7-Dimethoxy-4-quinazolinyl)oxy]phenyl}-N′-[3-(3-methylphenyl)propanoyl]thiourea] | 26 | – | – | 13 | – |
| COc1cc2ncnc(Oc3ccc(NC(=S)NC(=O)CCCCl)cc3)c2cc1OC [Example 1186, N-(4-Chlorobutanoyl)-N′-{4-[(6,7-dimethoxy-4-quinazolinyl)oxy]phenyl}thiourea] | – | – | 405 | < 10 | – |
| COc1cc2ncnc(Oc3ccc(NC(=S)NC(=O)C4(C)CCCCC4)cc3)c2cc1OC [Example 1193, N-{4-[(6,7-Dimethoxy-4-quinazolinyl)oxy]phenyl}-N′-[(1-methylcyclohexyl)carbonyl]thiourea] | 18 | – | – | < 10 | – |
| COc1cc2ncnc(Oc3ccc(NC(=S)NC(=O)C4(c5ccccc5)CC4)cc3)c2cc1OC [Example 1195, N-{4-[(6,7-Dimethoxy-4-quinazolinyl)oxy]phenyl}-N′-[(1-phenylcyclopropyl)carbonyl]thiourea] | – | – | 530 | 21 | – |
| CCCC1CCC(C(=O)NC(=S)Nc2ccc(Oc3ncnc4cc(OC)c(OC)cc34)cc2)CC1 (centres unmarked) [Example 1197, N-{4-[(6,7-Dimethoxy-4-quinazolinyl)oxy]phenyl}-N′-[(4-propylcyclohexyl)carbonyl]thiourea] | – | – | 219 | 25 | – |
| COc1cc2nccc(Oc3ccc(NC(=S)NC(=O)CCCCl)cc3Cl)c2cc1OC [Example 1198, N-(4-Chlorobutanoyl)-N′-{3-chloro-4-[(6,7-dimethoxy-4-quinolyl)oxy]phenyl}thiourea] | – | – | 247 | < 10 | – |
| CCCC(C)C(=O)NC(=S)Nc1ccc(Oc2ccnc3cc(OC)c(OC)cc23)c(Cl)c1 (centres unmarked) [Example 1200, N-{3-Chloro-4-[(6,7-dimethoxy-4-quinolyl)oxy]phenyl}-N′-(2-methylpentanoyl)thiourea] | – | – | 716 | 25 | – |
| COc1cc2nccc(Oc3ccc(NC(=S)NC(=O)c4ccc(F)cc4F)c(Cl)c3)c2cc1OC [Example 1202, N-{2-Chloro-4-[(6,7-dimethoxy-4-quinolyl)oxy]phenyl}-N′-(2,4-difluorobenzoyl)thiourea] | 15 | – | – | 50 | – |
| COc1ccc(C(=O)NC(=S)Nc2ccc(Oc3ccnc4cc(OC)c(OC)cc34)c(Cl)c2)cc1OC [Example 1204, N-{3-Chloro-4-[(6,7-dimethoxy-4-quinolyl)oxy]phenyl}-N′-(3,4-dimethoxybenzoyl)thiourea] | – | – | 434 | 18 | – |
| N-{4-[(6,7-Dimethoxy-4-quinolyl)oxy]-2,3-dimethylphenyl}-N′-[3-(1-piperidinyl)propyl]thiourea [Example 558] | – | – | – | 73 | IC50 (c-kit; 50 ng/ml h-SCF): 724 nM |
| N-{4-[(6,7-Dimethoxy-4-quinolyl)oxy]-2-chlorophenyl}-N′-[4-(N-benzyl)piperidinyl]urea [Example 605] | – | – | – | 31 | IC50 (c-kit; 50 ng/ml h-SCF): 394 nM |
| N-{4-[(6,7-Dimethoxy-4-quinolyl)oxy]-2-methoxyphenyl}-N′-(1-homopiperidinyl)urea [Example 600] | – | – | – | < 10 | IC50 (c-kit; 50 ng/ml h-SCF): 208 nM |

More lines, main results first:

| inhibition at 1 µM (c-kit; at 1000 nM) [%] | inhibition at 1 µM (PDGF-R) [%] | IC50 (c-kit; h-SCF stimulation) [nM] | IC50 (PDGF-Ra) [nM] | Compound | further results |
| --- | --- | --- | --- | --- | --- |
| 1 | 23 | – | – | COc1cc2nccc(Oc3ccc(S(=O)(=O)CCOc4ccc(C)cc4)cc3)c2cc1OC [Example 834, 4-[(6,7-Dimethoxy-4-quinolyl)oxy]phenyl [2-(4-methylphenoxy)ethyl]sulfone] | – |
| 19 | 10 | – | – | COc1cc2nccc(Oc3ccc(S(=O)(=O)CCOc4ccccc4F)cc3)c2cc1OC [Example 837, 4-[(6,7-Dimethoxy-4-quinolyl)oxy]phenyl [2-(2-fluorophenoxy)ethyl]sulfone] | – |
| – | – | 206 | < 10 | COc1cc2nccc(Oc3ccc(NC(=S)NC(=O)C4CCCC4)cc3Cl)c2cc1OC [Example 1182, N-{3-Chloro-4-[(6,7-dimethoxy-4-quinolyl)oxy]phenyl}-N′-cyclopentylcarbonylthiourea] | – |
| – | – | 73 | 26 | CCCCCC(=O)NC(=S)Nc1ccc(Oc2ncnc3cc(OC)c(OC)cc23)cc1 [Example 1189, N-{4-[(6,7-Dimethoxy-4-quinazolinyl)oxy]phenyl}-N′-hexanoylthiourea] | – |
| – | – | 240 | 24 | COc1cc2nccc(Oc3ccc(NC(=S)NC(=O)C4CC4C)cc3Cl)c2cc1OC (centres unmarked) [Example 1190, N-{3-Chloro-4-[(6,7-dimethoxy-4-quinolyl)oxy]phenyl}-N′-[(2-methylcyclopropyl)carbonyl]thiourea] | – |
| – | – | 193 | 31 | COc1cc2ncnc(Oc3ccc(NC(=S)NC(=O)C4CC4C)cc3)c2cc1OC (centres unmarked) [Example 1191, N-{4-[(6,7-Dimethoxy-4-quinazolinyl)oxy]phenyl}-N′-[(2-methylcyclopropyl)carbonyl]thiourea] | – |
| – | – | 672 | 19 | COc1cc2nccc(Oc3ccc(NC(=S)NC(=O)C4(C)CCCCC4)cc3Cl)c2cc1OC [Example 1192, N-{3-Chloro-4-[(6,7-dimethoxy-4-quinolyl)oxy]phenyl}-N′-[(1-methylcyclohexyl)carbonyl]thiourea] | – |
| – | – | 700 | > 100 | CCCC1CCC(C(=O)NC(=S)Nc2ccc(Oc3ccnc4cc(OC)c(OC)cc34)c(Cl)c2)CC1 (centres unmarked) [Example 1196, N-{3-Chloro-4-[(6,7-dimethoxy-4-quinolyl)oxy]phenyl}-N′-[(4-propylcyclohexyl)carbonyl]thiourea] | – |
| – | – | 450 | < 10 | CCCC(C)C(=O)NC(=S)Nc1ccc(Oc2ncnc3cc(OC)c(OC)cc23)cc1 (centres unmarked) [Example 1201, N-{4-[(6,7-Dimethoxy-4-quinazolinyl)oxy]phenyl}-N′-(2-methylpentanoyl)thiourea] | – |
| – | – | – | 46 | N-{4-[(6,7-Dimethoxy-4-quinolyl)oxy]-2-chlorophenyl}-N′-(1-piperidinyl)urea [Example 595] | c-kit inhibition (%) at 1000 nM (c-kit; figure within parentheses in −( ) or >1000( ), at 1000 nM): −(0) % |
